Experimental data: US20250129328A1, “AN ISOLATED S. SALIVARIUS STRAIN AND ITS USE AS AN ANTIMICROBIAL PRODUCING PROBIOTIC” (priority 2021, published 2025)
Ends that are not written are not given here.

Assays:
[1] = test system: F. nucleatum DSM15643; experiment: Well diffusion assay (WDA) of purified nisin peptides; assay type: cell-based, Fusobacterium nucleatum; parameters: dose or concentration left out as unconfirmed
[2] = test system: L. bulgaricus DPC5383; experiment: Well diffusion assay (WDA) of purified nisin peptides and CFS; assay type: cell-based, Lactobacillus delbrueckii ssp. bulgaricus; parameters: dose or concentration left out as unconfirmed; conditions: semi-pure nisin G and pure nisin A
Method: The culture was centrifuged at 7,871 g for 20 minutes and cells separated from the supernatant. The cell pellet was resuspended in 300 ml of 70% 2 propanol 0.1% TFA (IPA) and stirred at room temperature for 3-4 hours. The resulting suspension was centrifuged again, and the supernatant retained for purification of the antimicrobial. […] The IPA was removed by rotary evaporation and the sample applied to a 12 ml, 2 g Strata-E C18 SPE column pre-equilibrated (Phenomenex, Cheshire, UK) with methanol and water. The column was washed with 24 ml 30% ethanol and then 24 ml 70% 2-propanol 0.1% TFA. […] The IPA was removed from the C18 SPE IPA eluent by rotary evaporation (Buchi Labortechnik AG; Flawil, Switzerland) and the resulting sample applied to a semi prep Jupiter Proteo (10×250 mm, […], 90 Å) Reversed Phase HPLC column running a 30-50% acetonitrile 0.1% TFA gradient at 2.5 mL/min where buffer A was 0.1% TFA and buffer B was 100% acetonitrile 0.1% TFA. […] Bioactive fractions were pooled and lyophilized using a Genevac lyophiliser (Suffolk, UK).

Substance	Zone of inhibition (area of zone of inhibition minus area of well) [1]	Antimicrobial activity, comparison of size of zones of inhibition (in words) [2]
nisin G	37.7 mm^2	less than nisin A
nisin A (ITSISLCTPGCKTGALMGCNMKTATCHCSIHVSK; also: lantibiotic, modified residues and rings not given here; UniProt P13068 24-57, looked up) [prototypical broad spectrum lantibiotic, purified from nisinA®P (Handary) by reversed phase HPLC, reference compound]	395.8 mm^2	–
